Data as given in patent publication US7998958B2, “Substituted N-arylsulfonylheterocyclic amines as gamma-secretase inhibitors” (Schering Corporation, priority 2004, dated 2011).

Tested on: gamma-secretase
Assay: Gamma-secretase activity in membranes of 293 cells expressing C99 (SPC99-Ion), Aβ 40 / Aβ 42 by ECL immunoassay
Assay type: biochemical
Settings: gamma-secretase membrane assay; single values listed after 'within the range of about 1 nM to about 25 nM, i.e.'
Protocol: Gamma-secretase activity was determined as described by Zhang et al. (Biochemistry, 40 (16), 5049-5055, 2001), which is herein incorporated by reference. Activity is expressed either as a percent inhibition or as the concentration of compound producing 50% inhibition of enzyme activity.
Reagents. Antibodies W02, G2-10, and G2-11 were obtained from Dr. Konrad Beyreuther (University of Heidelberg, Heidelberg, Germany). W02 recognizes residues 5-8 of Aβ peptide, while G2-10 and G2-11 recognize the specific C-terminal structure of Aβ 40 and Aβ42, respectively. Biotin-4G8 was purchased from Senetec (St. Louis, Mo.). All tissue culture reagents used in this work were from Life Technologies, Inc., unless otherwise specified. Pepstatin A was purchased from Roche Molecular Biochemicals; DFK167 was from Enzyme Systems Products (Livermore, Calif.).
cDNA Constructs, Tissue Culture, and Cell Line Construction. The construct SPC99-Ion, which contains the first 18 residues and the C-terminal 99 amino acids of APP carrying the London mutation, has been described (Zhang, L., Song, L., and Parker, E. (1999) J. Biol. Chem. 274, 8966-8972). Upon insertion into the membrane, the 17 amino acid signal peptide is processed, leaving an additional leucine at the N-terminus of Aβ. SPC99-Ion was cloned into the pcDNA4/TO vector (Invitrogen) and transfected into 293 cells stably transfected with pcDNA6/TR, which is provided in the T-REx system (Invitrogen). The transfected cells were selected in Dulbecco's modified Eagle's media (DMEM) supplemented with 10% fetal bovine serum, 100 units/mL penicillin, 100 µg/mL streptomycin, 250 µg/mL zeocin, and 5 µg/mL blasticidin (Invitrogen). Colonies were screened for Aβ production by inducing C99 expression with […] tetracycline for 16-20 h and analyzing conditioned media with a sandwich immunoassay (see below). One of the clones, designated as pTRE.15, was used in these studies.
Membrane Preparation. C99 expression in cells was induced with […] tetracycline for 20 h. The cells were pretreated with […] 12-myristate 13-acetate (PMA) and […] brefeldin A (BFA) for 5-6 h at 37° C. before harvesting. The cells were washed 3 times with cold phosphate-buffered saline (PBS) and harvested in buffer A containing 20 mM Hepes (pH 7.5), 250 mM sucrose, 50 mM KCl, 2 mM EDTA, 2 mM EGTA, and Complete protease inhibitor tablets (Roche Molecular Biochemicals). The cell pellets were flash-frozen in liquid nitrogen and stored at −70 C before use.
To make membranes, the cells were resuspended in buffer A and lysed in a nitrogen bomb at 600 psi. The cell lysate was centrifuged at 1500 g for 10 min to remove nuclei and large cell debris. The supernatant was centrifuged at 100000 g for 1 h. The membrane pellet was resuspended in buffer A plus 0.5 M NaCl, and the membranes were collected by centrifugation at 200000 g for 1 h. The salt-washed membrane pellet was washed again in buffer A and centrifuged at 100000 g for 1 h. The final membrane pellet was resuspended in a small volume of buffer A using a Teflon-glass homogenizer. The protein concentration was determined, and membrane aliquots were flash-frozen in liquid nitrogen and stored at −70° C.
γ-Secretase Reaction and AβAnalysis. To measure γ-secretase activity, membranes were incubated at 37° C. for 1 h in 50 μL of buffer containing 20 mM Hepes (pH 7.0) and 2 mM EDTA. At the end of the incubation, Aβ 40 and Aβ 42 were measured using an electrochemiluminescence (ECL)-based immunoassay. Aβ 40 was identified with antibody pairs TAG-G2-10 and biotin-W02, while Aβ 42 was identified with TAG-G2-11 and biotin-4G8. The ECL signal was measured using an ECL-M8 instrument (IGEN International, Inc.) according to the manufacturer's instructions. The data presented were the means of the duplicate or triplicate measurements in each experiment. The characteristics of γ-secretase activity described were confirmed using more than five independent membrane preparations.

Compound	IC50
O=C(CC1([C@H]2COC[C@@H](C3CC3)N2S(=O)(=O)c2ccc(Cl)cc2)CC1)N1C2CCC1CC(N1CCCCC1)C2 (single isomer, unassigned) [Example 142]	12.4 nM
O=C(OC[C@H]1COC[C@@H](c2cc(F)cc(F)c2)N1S(=O)(=O)c1ccc(Cl)cc1)N1CCC(N2CCCCC2)CC1 [Example 2]	6.8 nM
CCC[C@@H]1COC[C@H](C2(OC(=O)N3CC4CCC(C3)N4CCO)CC2)N1S(=O)(=O)c1ccc(Cl)cc1 [Example 15]	3.6 nM
CC(C)(CO)N1CCN(C(=O)OC2(C3COCC(c4cc(F)cc(F)c4)N3S(=O)(=O)c3ccc(Cl)cc3)CC2)CC1 (stereo not shown) [Example 16, 4-(2-Hydroxy-1,1-dimethyl-ethyl)-piperazine-1-carboxylic acid 1-[4-(4-chloro-benzenesulfonyl)-5-(3,5-difluoro-phenyl)-morpholin-3-yl]-cyclopropyl ester]	1.4 nM
O=C(OC[C@H]1COC[C@@H](C2CC2)N1S(=O)(=O)c1ccc(Cl)cc1)N1CCC(N2CCCCC2)CC1 [Example 30]	11.1 nM
CC(C)(CO)N1CCN(C(=O)OC2(C3COCC(C4CC4)N3S(=O)(=O)c3ccc(Cl)cc3)CC2)CC1 (stereo not shown) [Example 35, 4-(2-Hydroxy-1,1-dimethyl-ethyl)-piperazine-1-carboxylic acid 1-[4-(4-chloro-benzenesulfonyl)-5-cyclopropyl-morpholin-3-yl]-cyclopropyl ester]	9.5 nM
CCCC1(O)CCN(C(=O)OC2([C@H]3COC[C@@H](C4CC4)N3S(=O)(=O)c3ccc(Cl)cc3)CC2)C1 (stereo partly shown) [Example 36]	13.3 nM
O=C(OC1([C@H]2COC[C@@H](C3CC3)N2S(=O)(=O)c2ccc(Cl)cc2)CC1)N1CC2CCC(C1)N2CCO [Example 43]	7.9 nM
O=C(O)CC1CCN(C(=O)OC2([C@H]3COC[C@@H](C4CC4)N3S(=O)(=O)c3ccc(Cl)cc3)CC2)CC1 [Example 47]	24.5 nM
CN1CC2CCC(C1)N2C(=O)OC1([C@H]2COC[C@@H](C3CC3)N2S(=O)(=O)c2ccc(Cl)cc2)CC1 [Example 51]	6.2 nM
CN(C)CC(=O)N1C2CCC1CN(C(=O)OC1([C@H]3COC[C@@H](C4CC4)N3S(=O)(=O)c3ccc(Cl)cc3)CC1)C2 [Example 59]	8.9 nM
C[C@@H]1OC[C@H](C2(OC(=O)N3CC[C@@H](O)C3)CC2)N(S(=O)(=O)c2ccc(Cl)cc2)[C@@H]1C1CC1 [Example 69]	5.2 nM
C[C@H]1OC[C@H](C2(OC(=O)N3CC4CCC(C3)N4CCO)CC2)N(S(=O)(=O)c2ccc(Cl)cc2)[C@@H]1C1CC1 [Example 75]	0.9 nM
CC(C)[C@@H]1COC[C@H](C2(OC(=O)N3CCN(C(C)(C)CO)CC3)CC2)N1S(=O)(=O)c1ccc(Cl)cc1 [Example 78]	3.9 nM
C[C@H]1N(S(=O)(=O)c2ccc(Cl)cc2)[C@@H](C2(OC(=O)N3CCC(C(N)=O)CC3)CC2)COC1(C)C [Example 88]	6.7 nM
CC(C)(CO)N1CCN(C(=O)OC2(C3COCC(CC4CC4)N3S(=O)(=O)c3ccc(Cl)cc3)CC2)CC1 (stereo not shown) [Example 94, 4-(2-Hydroxy-1,1-dimethyl-ethyl)-piperazine-1-carboxylic acid 1-[4-(4-chloro-benzenesulfonyl)-5-cyclopropylmethyl-morpholin-3-yl]-cyclopropyl ester]	2.1 nM
O=C(OC1([C@H]2COC[C@@H](CC3CC3)N2S(=O)(=O)c2ccc(Cl)cc2)CC1)N1CC2CC1CN2CCO (stereo partly shown) [Example 98]	3.6 nM
O=C(OC1([C@H]2COC[C@@H](CC3CC3)N2S(=O)(=O)c2ccc(Cl)cc2)CC1)N1CC2CCC(C1)N2CCO [Example 99]	0.9 nM
CN1CCN(C(=O)OC2([C@H]3COC[C@@H](CC4CC4)N3S(=O)(=O)c3ccc(Cl)cc3)CC2)CC1=O [Example 110]	5.7 nM
CN1CCCN(C(=O)OC2([C@H]3COC[C@@H](CC4CC4)N3S(=O)(=O)c3ccc(Cl)cc3)CC2)CC1 [Example 122]	4.2 nM
O=C(OC1([C@H]2COC[C@@H](CC3CC3)N2S(=O)(=O)c2cc(F)cc(F)c2)CC1)N1CC2CCC(C1)N2 [Example 135]	4.2 nM
O=C(C(O)C1([C@H]2COC[C@@H](C3CC3)N2S(=O)(=O)c2ccc(Cl)cc2)CC1)N1CC2CCC(C1)N2 (stereo partly drawn) [Example 146, alpha-[1-[4-[(4-chlorophenyl)sulfonyl]-5(r)-cyclopropyl-3(s)-morpholinyl]cyclopropyl]-beta-oxo-3,8-diazabicyclo[3.2.1]octane-3-ethanol]	10.1 nM
